What was measured:
[1] = test system: primary cortical neurons; assay: Primary cortical neuron protection assay; format: cell-based; details: result in words
[2] = test system: PC-12 cells expressing mutant G93A SOD1; assay: Mutant SOD1-induced cytotoxicity protection assay; format: cell-based; details: result in words
[3] = test system: PC-12 cells expressing mutant G93A SOD1; details: result in words; previously prepared compound; cited from earlier work

Structure (SMILES) | activity in cortical neurons [1] | protection against mutant SOD1 induced toxicity in PC-12 cells [2] | inhibition of protein aggregation in PC-12 cells expressing mutant G93A SOD1 [3]
C[C@H](Oc1cc(C(F)(F)F)cc(C(F)(F)F)c1)C1CC(=O)CC(=O)C1 [1b] | active | protective | 
O=C1CC(=O)CC([C@@H]2C[C@H]2c2cc(C(F)(F)F)cc(C(F)(F)F)c2)C1 [2b] | active | protective | 
O=C1CC(=O)CC(c2cc(C(F)(F)F)cc(C(F)(F)F)c2)C1 [compound 13] |  |  | potent inhibitor

Source: PMC3402085 (ACS medicinal chemistry letters, 2012)
